Data from article PMC12051030, “Identification of inhibitors of the Salmonella FraB deglycase, a drug target” (FEBS Open Bio, 2025).

Tests used:
FraB = FraB (Salmonella enterica subsp. enterica serovar Typhimurium, UniProt Q8ZLD0); experiment: Native MS of FraB–inhibitor complexes; assay type: binding; conditions: for binding to FraB by native MS (species observed): IST 50 V, E2I/E2I2 = FraB dimer bound to one or two inhibitor copies; for type of FraB–inhibitor interaction (covalent vs noncovalent): decrease in E2I and E2I2 with increasing IST voltage
Protocol: For MS analysis, FraB was buffer exchanged into 200 mM ammonium acetate (AmAc) (Sigma‐Aldrich) or 66.7 mM ethylenediaminediacetic acid (EDDA) (Sigma‐Aldrich) using micro Bio‐spin P6 spin columns (Bio‐Rad); AmAc and EDDA concentrations were chosen to ensure the same ionic strength. The pH was adjusted to 7.5 by adding ammonium hydroxide solution (Sigma‐Aldrich). 6‐P‐F‐Asp was diluted with water, while three different inhibitors [3470:A09, 3469:F02, and 3469:N17, all purchased from either ChemDiv (San Diego, CA, USA) or Ambinter (Orléans, France)] were diluted in DMSO. The final concentration of DMSO used in the native MS experiments was 4.8% (v/v) or 1% (v/v) for the compounds obtained from ChemDiv or Ambinter, respectively.
For the characterization of FraB–inhibitor complexes, the protein was diluted into 200 mM AmAc and then mixed with inhibitors to final concentrations of 3 μM FraB and 120 μM inhibitor. After adding the inhibitors, the FraB–inhibitor complex was incubated for 20 min at 20 °C before injecting into the mass spectrometry (MS). For the characterization of FraB–inhibitor–substrate complexes, FraB was diluted into 66.7 mM EDDA, mixed with inhibitors, incubated at 20 °C for 20 min, and subsequently mixed with 6‐P‐F‐Asp. The final concentrations were as follows: 3 μM FraB (monomer concentration), 120 μM inhibitor, and 600 μM 6‐P‐F‐Asp.
Native MS experiments were performed on Thermo Q Exactive ultra high mass range (UHMR) Orbitrap. Samples were introduced into the MS instrument by nano‐electrospray ionization, which using glass capillary tips pulled in‐house using a P‐97 micropipette puller (Sutter Instruments, Novato, CA, USA). Each sample (3–5 μL) was loaded into the tips, and the electrospray voltage was set between 0.6 and 1.0 kV. The mass spectrometer was operated in positive mode using the following tuning settings: Capillary temperature: 200 °C detector optimization: low m/z; ion transfer target: high m/z; in‐source trapping (IST): 50 V, except when applying higher IST to disrupt the FraB–inhibitor interactions; HCD trap gas flow: 5; Resolution: 12 500. Mass spectra were collected after the spray stabilized (typically < 5 min) and then examined using XCalibur 4.1 (Thermo Scientific), and deconvolved using UniDec software.

dCTP pyrophosphatase 1 = system: dCTP pyrophosphatase 1; parameters: method as in PMID 28145708; conditions: bioassay records in PubChem; cited from earlier work
deubiquitinase USP30 = system: deubiquitinase USP30; parameters: method as in PMID 28145708; conditions: bioassay records in PubChem; cited from earlier work
deubiquitinase USP17 = system: deubiquitinase USP17; parameters: method as in PMID 28145708; conditions: bioassay records in PubChem; cited from earlier work
deubiquitinase USP28 = system: deubiquitinase USP28; parameters: method as in PMID 28145708; conditions: bioassay records in PubChem; cited from earlier work

Chain of FraB (Q8ZLD0 entry or part of it): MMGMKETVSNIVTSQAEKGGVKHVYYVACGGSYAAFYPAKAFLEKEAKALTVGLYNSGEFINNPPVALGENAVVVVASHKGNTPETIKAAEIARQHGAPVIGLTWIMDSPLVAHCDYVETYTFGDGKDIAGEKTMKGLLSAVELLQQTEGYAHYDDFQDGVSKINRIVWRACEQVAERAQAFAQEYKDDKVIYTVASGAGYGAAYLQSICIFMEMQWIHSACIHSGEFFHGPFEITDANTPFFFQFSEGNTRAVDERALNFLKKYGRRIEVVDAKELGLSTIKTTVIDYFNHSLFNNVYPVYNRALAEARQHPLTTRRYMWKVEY

Structure (SMILES)	binding to FraB by native MS (species observed) (FraB; 3 μM FraB, 120 μM inhibitor)	type of FraB–inhibitor interaction (covalent vs noncovalent) (FraB)	binding to FraB in the presence of substrate (native MS) (FraB; 3 μM FraB, 120 μM inhibitor, 600 μM 6‐P‐F‐Asp)	inhibition of dCTP pyrophosphatase 1 (dCTP pyrophosphatase 1)	inhibition of USP30 (deubiquitinase USP30)	inhibition of USP17 (deubiquitinase USP17)	inhibition of USP28 (deubiquitinase USP28)
c1ccc(-c2nnc3sc(C4COc5ccccc5O4)nn23)nc1 (centres unmarked) [3469:F02, 6‐(2,3‐dihydro‐1,4‐benzodioxin‐3‐yl)‐3‐pyridin‐2‐yl‐[1,2,4]triazolo[3,4‐b][1,3,4]thiadiazole]	distinct peaks corresponding to E2I and E2I2	noncovalent	–	–	–	–	–
Fc1ccc(-c2nn3c(-c4ccccn4)nnc3s2)cc1 [3469:N17, 6‐(4‐fluorophenyl)‐3‐pyridin‐2‐yl‐[1,2,4]triazolo[3,4‐b][1,3,4]thiadiazole]	distinct peaks corresponding to E2I and E2I2	noncovalent	can bind either free enzyme or the enzyme‐substrate complex	reported to inhibit	–	–	–
CC(C)Cc1cc(-c2nn3c(-c4ccccc4Cl)nnc3s2)n[nH]1 [3470:A09, 3‐(2‐chlorophenyl)‐6‐[5‐(2‐methylpropyl)‐1H‐pyrazol‐3‐yl]‐[1,2,4]triazolo[3,4‐b][1,3,4]thiadiazole]	distinct peaks corresponding to E2I and E2I2	noncovalent	–	–	found to inhibit	found to inhibit	found to inhibit
